# In ChEMBL document CHEMBL1124659 (J Med Chem, 1989):
# Columns and labels:
# Rattus norvegicus [1] = species: Rattus norvegicus; experiment: Agonistic activity in rat uterine preparations; assay type: functional
# Angiotensin II receptor [2] = target: T1, Angiotensin II receptor (Rattus norvegicus, UniProt P29089+P25095+P35351); experiment: Tested for inhibition of radioligand [Sar1,Ile5,8]AII binding to angiotensin II receptor in rat uterus
# T1 sequence (P29089 whole entry): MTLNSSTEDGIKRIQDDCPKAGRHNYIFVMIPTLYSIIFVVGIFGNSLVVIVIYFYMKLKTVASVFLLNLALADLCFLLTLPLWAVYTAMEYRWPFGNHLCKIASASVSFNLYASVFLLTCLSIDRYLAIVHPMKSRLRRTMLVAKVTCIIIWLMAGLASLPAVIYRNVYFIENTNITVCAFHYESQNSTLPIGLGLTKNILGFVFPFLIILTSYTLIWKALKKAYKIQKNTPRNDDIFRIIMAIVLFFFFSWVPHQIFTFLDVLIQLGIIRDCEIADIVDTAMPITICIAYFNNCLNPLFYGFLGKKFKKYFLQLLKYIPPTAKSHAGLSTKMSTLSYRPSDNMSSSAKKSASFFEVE
# T1 sequence (P25095 whole entry): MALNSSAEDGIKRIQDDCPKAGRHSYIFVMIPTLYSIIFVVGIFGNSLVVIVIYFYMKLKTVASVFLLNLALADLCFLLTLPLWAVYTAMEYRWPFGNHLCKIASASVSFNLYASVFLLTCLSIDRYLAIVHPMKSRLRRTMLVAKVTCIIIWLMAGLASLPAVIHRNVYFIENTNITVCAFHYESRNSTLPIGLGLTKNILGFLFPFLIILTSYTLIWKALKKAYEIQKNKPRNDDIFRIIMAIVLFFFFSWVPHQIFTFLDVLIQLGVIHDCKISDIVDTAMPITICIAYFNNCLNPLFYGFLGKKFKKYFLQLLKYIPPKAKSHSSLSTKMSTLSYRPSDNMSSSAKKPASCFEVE
# T1 sequence (P35351 whole entry): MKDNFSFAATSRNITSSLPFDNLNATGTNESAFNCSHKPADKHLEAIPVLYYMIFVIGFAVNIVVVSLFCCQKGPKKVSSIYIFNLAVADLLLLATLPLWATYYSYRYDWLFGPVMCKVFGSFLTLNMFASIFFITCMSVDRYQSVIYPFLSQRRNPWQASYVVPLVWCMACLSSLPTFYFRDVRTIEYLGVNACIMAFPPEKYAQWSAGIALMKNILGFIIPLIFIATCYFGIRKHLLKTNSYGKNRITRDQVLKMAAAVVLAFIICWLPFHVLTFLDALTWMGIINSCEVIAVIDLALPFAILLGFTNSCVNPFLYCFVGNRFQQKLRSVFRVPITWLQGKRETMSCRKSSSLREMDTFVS
# Angiotensin II receptor [3] = target: T1, Angiotensin II receptor; experiment: Tested for inhibition of radioligand [Sar1,Ile5,8]AII binding to angiotensin II receptor in rat brain; assay type: tissue-based
# Rattus norvegicus [4] = species: Rattus norvegicus; experiment: Time period for the pressor response of angiotensin II to return to 50% of its treatment level at a compound dose of 10 ug; assay type: functional, organism-based
# [5] = target: T2, Angiotensin II receptor (Rattus norvegicus) (UniProt P29089+P25095+P35351); experiment: Inhibitory activity was determined against Angiotensin II receptor in rat uterine preparations at a compound dose of 6 ng/mL
# Rattus norvegicus [6] = species: Rattus norvegicus; experiment: Time period for the pressor response of angiotensin II to return to 50% of its treatment level at a compound dose of 30 ug; assay type: functional, organism-based
# [7] = target: T2, Angiotensin II receptor (Rattus norvegicus); experiment: Inhibitory activity was determined against Angiotensin II receptor in rat uterine preparations at a compound dose of 4 ng/mL
# [8] = target: T2, Angiotensin II receptor (Rattus norvegicus); experiment: Inhibitory activity was determined against Angiotensin II receptor in rat uterine preparations at a compound dose of 2 ng/mL
# Rattus norvegicus [9] = species: Rattus norvegicus; experiment: Time period for the pressor response of angiotensin II to return to 50% of its treatment level at a compound dose of 60 ug; assay type: functional, organism-based
# Rattus norvegicus [10] = species: Rattus norvegicus; experiment: Inhibitory activity was determined in rat uterine preparations at a compound dose of 6 ng/mL; assay type: functional
# Rattus norvegicus [11] = species: Rattus norvegicus; experiment: Inhibitory activity was determined in rat uterine preparations at a compound dose of 4 ng/mL; assay type: functional
# Rattus norvegicus [12] = species: Rattus norvegicus; experiment: Inhibitory activity was determined in rat uterine preparations at a compound dose of 2 ng/mL; assay type: functional
compound,measurement,setting,value
CNCC(=O)N[C@@H](CCCN=C(N)N)C(=O)N[C@H](C(=O)N[C@@H](Cc1ccc(O)cc1)C(=O)N[C@H](C(=O)N[C@@H](Cc1c[nH]cn1)C(=O)N1CCC[C@H]1C(=O)N[C@H](C(=O)O)C(c1ccccc1)c1ccccc1)C(C)C)C(C)C [listing 1 of 2 here],Activity,Rattus norvegicus [1],284%
H-NRVYVHPF-OH [ANGIOTENSIN AMIDE],Activity,Rattus norvegicus [1],100%
same,Ki,Angiotensin II receptor [2],5.48 nM
same,Ki,Angiotensin II receptor [3],1.64 nM
CNCC(=O)N[C@@H](CCCN=C(N)N)C(=O)N[C@H](C(=O)N[C@@H](Cc1ccc(O)cc1)C(=O)N[C@H](C(=O)N[C@@H](Cc1c[nH]cn1)C(=O)N1CCC[C@@H]1C(=O)N[C@H](CC(C)C)C(=O)O)C(C)C)C(C)C,Recovery time,Rattus norvegicus [4],34 min
same,Activity,[5],22.2
same,Recovery time,Rattus norvegicus [6],72 min
same,Activity,[7],3.9
same,Activity,[8],1.7
same,Recovery time,Rattus norvegicus [9],83 min
CNCC(=O)N[C@@H](CCCN=C(N)N)C(=O)N[C@H](C(=O)N[C@@H](Cc1ccc(O)cc1)C(=O)N[C@H](C(=O)N[C@@H](Cc1c[nH]cn1)C(=O)N1CCC[C@H]1C(=O)N[C@H](Cc1ccc(-c2ccccc2)cc1)C(=O)O)C(C)C)C(C)C [listing 1 of 2 here],Ki,Angiotensin II receptor [2],0.74 nM
same,Ki,Angiotensin II receptor [3],0.46 nM
CNCC(=O)N[C@@H](CCCN=C(N)N)C(=O)N[C@H](C(=O)N[C@@H](Cc1ccc(O)cc1)C(=O)N[C@H](C(=O)N[C@@H](Cc1c[nH]cn1)C(=O)N1CCC[C@H]1C(=O)N[C@H](Cc1ccc(-c2ccccc2)cc1)C(=O)O)C(C)C)C(C)C [listing 2 of 2 here],Activity,Rattus norvegicus [10],44.7
same,Activity,Rattus norvegicus [11],24.6
same,Activity,Rattus norvegicus [12],7.2
CNCC(=O)N[C@@H](CCCN=C(N)N)C(=O)N[C@H](C(=O)N[C@@H](Cc1ccc(O)cc1)C(=O)N[C@H](C(=O)N[C@@H](Cc1c[nH]cn1)C(=O)N1CCC[C@H]1C(=O)N[C@@H](Cc1ccc(-c2ccccc2)cc1)C(=O)O)C(C)C)C(C)C [listing 1 of 2 here],Ki,Angiotensin II receptor [2],1.74 nM
same,Ki,Angiotensin II receptor [3],1 nM
CNCC(=O)N[C@@H](CCCN=C(N)N)C(=O)N[C@H](C(=O)N[C@@H](Cc1ccc(O)cc1)C(=O)N[C@H](C(=O)N[C@@H](Cc1c[nH]cn1)C(=O)N1CCC[C@H]1C(=O)N[C@@H](C(=O)O)C(c1ccccc1)c1ccccc1)C(C)C)C(C)C [listing 1 of 2 here],Ki,Angiotensin II receptor [2],6.08 nM
same,Ki,Angiotensin II receptor [3],1.64 nM
CNCC(=O)N[C@@H](CCCN=C(N)N)C(=O)N[C@H](C(=O)N[C@@H](Cc1ccc(O)cc1)C(=O)N[C@H](C(=O)N[C@@H](Cc1c[nH]cn1)C(=O)N1CCC[C@H]1C(=O)N[C@H](C(=O)O)C(c1ccccc1)c1ccccc1)C(C)C)C(C)C [listing 2 of 2 here],Ki,Angiotensin II receptor [2],1.23 nM
same,Ki,Angiotensin II receptor [3],0.85 nM
CNCC(=O)N[C@@H](CCCN=C(N)N)C(=O)N[C@H](C(=O)N[C@@H](Cc1ccc(O)cc1)C(=O)N[C@H](C(=O)N[C@@H](Cc1c[nH]cn1)C(=O)N1CCC[C@H]1C(=O)N[C@@H](Cc1ccc(-c2ccccc2)cc1)C(=O)O)C(C)C)C(C)C [listing 2 of 2 here],Activity,Rattus norvegicus [10],208.2
same,Activity,Rattus norvegicus [11],71.7
same,Activity,Rattus norvegicus [12],9.2
CNCC(=O)N[C@@H](CCCN=C(N)N)C(=O)N[C@H](C(=O)N[C@@H](Cc1ccc(O)cc1)C(=O)N[C@H](C(=O)N[C@@H](Cc1c[nH]cn1)C(=O)N1CCC[C@H]1C(=O)NC1(C(=O)O)Cc2ccccc2C1)C(C)C)C(C)C [listing 1 of 2 here],Activity,Rattus norvegicus [10],31.8
same,Activity,Rattus norvegicus [11],16.2
same,Activity,Rattus norvegicus [12],8.7
CNCC(=O)N[C@@H](CCCN=C(N)N)C(=O)N[C@H](C(=O)N[C@@H](Cc1ccc(O)cc1)C(=O)N[C@H](C(=O)N[C@@H](Cc1c[nH]cn1)C(=O)N1CCC[C@H]1C(N)=O)C(C)C)C(C)C,Ki,Angiotensin II receptor [2],52.8 nM
same,Ki,Angiotensin II receptor [3],9310 nM
CNCC(=O)N[C@@H](CCCN=C(N)N)C(=O)N[C@H](C(=O)N[C@@H](Cc1ccc(O)cc1)C(=O)N[C@H](C(=O)N[C@@H](Cc1c[nH]cn1)C(=O)N1CCC[C@H]1C(=O)NC1(C(=O)O)Cc2ccccc2C1)C(C)C)C(C)C [listing 2 of 2 here],Ki,Angiotensin II receptor [2],1.52 nM
same,Ki,Angiotensin II receptor [3],1.82 nM
CNCC(=O)N[C@@H](CCCN=C(N)N)C(=O)N[C@H](C(=O)N[C@@H](Cc1ccc(O)cc1)C(=O)N[C@H](C(=O)N[C@@H](Cc1c[nH]cn1)C(=O)N1CCC[C@H]1C(=O)N[C@@H](C(=O)O)C(c1ccccc1)c1ccccc1)C(C)C)C(C)C [listing 2 of 2 here],Activity,Rattus norvegicus [1],48%
